Data as given in patent US20050101595A1, “N-containing cycloalkyl-substituted amino-thiazole derivatives and pharmaceutical compositions for inhibiting cell proliferation and methods for their use” (PFIZER INC., priority 2003, published 2005).
Structures can show the parent of a compound that is named as a salt. Where two headings read alike, the source gives them in different places. Values belong to the compound of their own block, whether it stands above or below them.

Assays:
[1] = target: human CDK4 and genetically truncated (1-264) cyclin D3 (Homo sapiens, UniProt P11802); assay: Inhibition of CDK4/Cyclin D Retinoblastoma Kinase Activity; type: biochemical; conditions: for Ki: apparent Ki, CDK4/truncated cyclin D3, Rb fragment substrate, 25 μM ATP
Sequence of human CDK4 and genetically truncated (1-264) cyclin D3 (P11802 whole entry, the tested form may be a part): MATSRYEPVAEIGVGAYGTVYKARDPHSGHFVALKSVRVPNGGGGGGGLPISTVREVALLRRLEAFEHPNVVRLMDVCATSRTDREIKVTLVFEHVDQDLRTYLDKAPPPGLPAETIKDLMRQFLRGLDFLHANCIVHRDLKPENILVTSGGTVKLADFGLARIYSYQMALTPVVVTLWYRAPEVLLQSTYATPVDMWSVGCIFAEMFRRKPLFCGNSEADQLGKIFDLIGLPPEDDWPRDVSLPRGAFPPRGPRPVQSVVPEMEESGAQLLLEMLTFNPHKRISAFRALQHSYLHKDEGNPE
Sequence of human CDK4 and genetically truncated (1-264) cyclin D3 (P30281 1-264 partner): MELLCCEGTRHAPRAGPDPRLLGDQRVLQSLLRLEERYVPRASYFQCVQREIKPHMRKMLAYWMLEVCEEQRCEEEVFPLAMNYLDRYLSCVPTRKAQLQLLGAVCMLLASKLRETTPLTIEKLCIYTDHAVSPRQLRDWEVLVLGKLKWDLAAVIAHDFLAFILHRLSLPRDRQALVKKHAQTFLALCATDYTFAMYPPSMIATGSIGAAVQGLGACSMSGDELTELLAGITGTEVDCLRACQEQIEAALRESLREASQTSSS
Procedure, shortened: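 Apparent Ki values come from competitive or competitive tight-binding inhibition fits of background-corrected 32P/33P incorporation into His-tagged Rb fragment (386-928), captured on nitrocellulose. Reaction: 5 nM insect-cell-expressed human CDK4 with cyclin D3 (1-264), 25 μM ATP, pH 7.4 HEPES, 2% DMSO, 30° C., 20 min, extended to 60 min for tight-binding inhibitors.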

HCT-116 cell line = assay: Inhibition of cell growth, tetrazolium salt (MTT) assay; type: cell-based; conditions: for IC50: Homo sapiens, HCT-116, 120 h, MTT, three to five days, read-out: HCT-116 IC50; for HCT-116 % Inhibition at 0.25 μM: 0.25 μM compound
Procedure, shortened: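 First, cells were seeded in McCoy's 5A medium and held 4 h. Next, inhibitor concentrations in 0.5% (v/v) DMSO were applied for three to five days at 37° C, 5% CO2. Finally, after 4 h with 0.2 mg/mL MTT and medium removal, solubilized formazan was measured at 540 nm.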

CDK2/Cyclin A = CDK2/Cyclin A (Homo sapiens, UniProt P24941); assay: Inhibition of CDK2/Cyclin A Retinoblastoma Kinase Activity; type: biochemical; conditions: for Ki: apparent Ki, CDK2/proteolyzed cyclin A, Rb fragment substrate, 25 μM ATP; for CDK2 % Inhibition At 0.03 μM: Table 2
Procedure, shortened: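 Radiometric filter-binding readout of phosphate transfer to an Rb substrate fragment by purified CDK2/truncated cyclin A at 10 or 19 nM. Run at pH 7.4 with 25 μM ATP, 30 °C, 60–75 min, linear rates; background without enzyme subtracted, Ki from competitive-inhibition models.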

[2] = 0.03 μM compound, Table 4, 0.03 µM
[3] = 0.1 μM compound, HCT-116, Table 4

- CDK4 % Inhibition at 0.03 μM ([1]; 0.03 μM compound, Table 2): 4%
- CDK2 % Inhibition At 0.03 μM (CDK2/Cyclin A; 0.03 μM compound): 28%
Compound: Nc1nc(NC2CCN(C(=O)Nc3ccc(-c4ccccc4)cc3)CC2)sc1C(=O)c1c(F)cccc1F [Example O63]
- HCT-116 % Inhibition at 0.25 μM (HCT-116 cell line; HCT-116, Table 2): 40%

- CDK4 % Inhibition at 0.03 μM ([1]; at 0.03 μM): −8%
- CDK2 % Inhibition at 0.03 μM (CDK2/Cyclin A; at 0.03 μM): 5%
Compound: Nc1nc(NC2CCN(C(=O)c3ccccc3F)CC2)sc1C(=O)c1c(F)cccc1F [Example R104]
- HCT-116 % Inhibition at 0.1 μM (HCT-116 cell line; HCT-116 cells, at 0.1 μM): 0%
- HCT-116 5 Inhibition at 0.25 μM (HCT-116 cell line; HCT-116 cells): 38

- CDK4 % Inhibition at 0.03 μM [1, 2]: 35%
- CDK2 % Inhibition at 0.03 μM (CDK2/Cyclin A; [2]): −2%
Compound: CCCCCCOc1ccc(C(=O)N2CCC(Nc3nc(N)c(C(=O)c4c(F)cccc4F)s3)CC2)cc1 [Example Q31]
- HCT-116 % Inhibition at 0.1 μM (HCT-116 cell line; [3]): 8%
- HCT-116 % Inhibition at 0.25 μM (HCT-116 cell line; HCT-116, Table 4, 0.25 µM): 41%

- CDK4 % Inhibition at 0.03 μM ([1]; 0.03 μM compound, Table 4): 61%
- CDK2 % Inhibition at 0.03 μM (CDK2/Cyclin A; 0.03 μM compound, Table 4): 28%
Compound: Nc1nc(NC2CCN(C(=O)c3ccc([N+](=O)[O-])cc3)CC2)sc1C(=O)c1c(F)cccc1F [Example Q71]
- HCT-116 % Inhibition at 0.1 μM (HCT-116 cell line; [3]): 2%
- HCT-116 % Inhibition at 0.25 μM (HCT-116 cell line; HCT-116, Table 4): 30%

- CDK4 % Inhibition at 0.03 μM ([1]; at 0.03 μM): 73%
- CDK2 % Inhibition at 0.03 μM (CDK2/Cyclin A; at 0.03 μM): 66%
Compound: Nc1nc(NC2CCN(C(=O)c3cc4ccccc4s3)CC2)sc1C(=O)c1c(F)cccc1F [Example R17]
- HCT-116 % Inhibition at 0.1 μM (HCT-116 cell line; HCT-116 cells, at 0.1 μM): 0%
- HCT-116 5 Inhibition at 0.25 μM (HCT-116 cell line; HCT-116 cells): 45

- CDK4 % Inhibition at 0.03 μM ([1]; 0.03 μM compound, Table 4): 9%
- CDK2 % Inhibition at 0.03 μM (CDK2/Cyclin A; 0.03 μM compound, Table 4): −13%
Compound: CCOC(=O)CC(=O)N1CCC(Nc2nc(N)c(C(=O)c3c(F)cccc3F)s2)CC1 [Example Q47]
- HCT-116 % Inhibition at 0.1 μM (HCT-116 cell line; [3]): 0%
- HCT-116 % Inhibition at 0.25 μM (HCT-116 cell line; HCT-116, Table 4): 25%

Continued, compound first:

Compound: COC(=O)c1sccc1S(=O)(=O)N1CCC(Nc2nc(N)c(C(=O)c3c(F)cccc3F)s2)CC1 [Example F10, 3-{4-[4-Amino-5-(2,6-difluoro-benzoyl)-thiazol-2-ylamino]-piperidine-1-sulfonyl}-thiophene-2-carboxylic acid methyl ester]
- Ki [1]: 0.0056 µM
- IC50 (HCT-116 cell line; first HCT-116 column (c4)): 0.28 µM
- IC50 (HCT-116 cell line; second HCT-116 column (c5)): < 5 µM
- Ki (CDK2/Cyclin A): 0.0079 µM

Compound: CN1CCC(Oc2ccc(S(=O)(=O)N3CCC(Nc4nc(N)c(C(=O)c5c(F)cccc5F)s4)CC3)cn2)CC1 [Example H14, 1-(4-Amino-2-{1-[6-(1-methyl-piperidin-4-yloxy)-pyridine-3-sulfonyl]-piperidin-4-ylamino}-thiazol-5-yl)-1-(2,6-difluoro-phenyl)-methanone Hydrochloride]
- Ki [1]: 0.00034 µM
- IC50 (HCT-116 cell line; first HCT-116 column (c4)): 0.04 µM
- IC50 (HCT-116 cell line; second HCT-116 column (c5)): 0.4 µM
- Ki (CDK2/Cyclin A): 0.00074 µM

Compound: CC[C@@H](NCCS(=O)(=O)N1CCC(Nc2nc(N)c(C(=O)c3c(F)cccc3F)s2)CC1)c1ccccc1 [Example K46, (4-Amino-2-{1-[2-(1 R-phenyl-propylamino)-ethanesulfonyl]-piperidin-4-ylamino}-thiazol-5-yl)-(2,6-difluoro-phenyl)-methanone]
- Ki [1]: 0.0021 µM
- IC50 (HCT-116 cell line; first HCT-116 column (c4)): 0.13 µM
- IC50 (HCT-116 cell line; second HCT-116 column (c5)): 0.26 µM
- Ki (CDK2/Cyclin A): 0.00081 µM

Compound: CN(C)CCCS(=O)(=O)N1CCC(Nc2nc(N)c(C(=O)c3c(F)cccc3F)s2)CC1 [Example K4, 1-(4-Amino-2-{1-[3-(dimethylamino)propane-1-sulfonyl]-piperidin-4-ylamino}-thiazol-5-yl)-1-(2,6-difluoro-phenyl)-methanone.]
- Ki [1]: 0.0013 µM
- IC50 (HCT-116 cell line; first HCT-116 column (c4)): 0.41 µM
- IC50 (HCT-116 cell line; second HCT-116 column (c5)): 1.5 µM
- Ki (CDK2/Cyclin A): 0.0018 µM

Compound: Cn1cnc(-c2ccc(S(=O)(=O)N3CCC(Nc4nc(N)c(C(=O)c5c(F)cccc5F)s4)CC3)cc2)c1 [Example F31, 1-(4-Amino-2-{1-[4-(1-methyl-1H-imidazol-4-yl)-benzenesulfonyl]-piperidin-4-ylamino}-thiazol-5-yl)-1-(2,6-difluoro-phenyl)-methanone Trifluoroacetic Acid Salt]
- Ki [1]: 0.00055 µM
- IC50 (HCT-116 cell line; first HCT-116 column (c4)): 0.08 µM
- IC50 (HCT-116 cell line; second HCT-116 column (c5)): 0.3 µM
- Ki (CDK2/Cyclin A): < 0.001 µM

Compound: CCOC(=O)CNC(=O)N1CCC(Nc2nc(N)c(C(=O)c3c(F)cccc3F)s2)CC1 [Example O30]
- CDK4 % Inhibition at 0.03 μM ([1]; 0.03 μM compound, Table 2): 16%
- HCT-116 % Inhibition at 0.25 μM (HCT-116 cell line; HCT-116, Table 2): 31%
- CDK2 % Inhibition At 0.03 μM (CDK2/Cyclin A; 0.03 μM compound): 27%
